Laboratory results as given in a melting point compilation (Tetko et al.).

Row | SMILES | melting point
1 | CC(=O)C1(O)CCC2(C)C(CC(=O)C3C4CCC(=O)C4(C)CCC32)C1 (stereo not given) | 185 to 191 °C
2 | Fc1ccc2c3c([nH]c2c1)CNCC3 | 224 °C
3 | CC(C)CC(C)(C)CO | -70 °C
4 | CC(C)C[C@H](NC(=O)CN)C(=O)O | 233 to 235 °C
5 | C=C(Cl)C#N | -65 °C
6 | COC(=O)c1ccc(C(C)=O)cc1 | 93 to 95 °C
7 | CCOC(=O)c1cc(C)n(C)n1 | 87 °C
8 | Cc1cc(N)no1 | 59 to 63 °C
9 | CC1(C)OC(=O)C(=NNc2ccc(O)cc2)C(=O)O1 | 238 °C
10 | Nc1ccc(-c2ccc(N)cc2)cc1 | 124 °C
11 | Clc1ccc2c(c1)Oc1ccc(Cl)cc1O2 | 202 °C
12 | COC(=O)c1ccc(=O)oc1 | 70 °C
13 | CC(CCC(=O)O)Cc1ccccc1 (stereo not given) | 56 °C
14 | N#Cc1c(S)nc2c(c1C(F)(F)F)CCCC2 | 216 to 220 °C
15 | C/C=C/c1ccc(O)c(OC)c1 | 33.5 °C
16 | C=CCc1ccc(OC)c(OC)c1 | 70 °C
17 | CC(=O)OC1CCC2(C)C(=CCC3C4CCC(=O)C4(C)CCC32)C1 (stereo not given) | 147 °C
18 | Cc1cc(CO)nn1C | 50 to 51 °C
19 | Cc1ccc(OCCCCBr)cc1 | 40 °C
20 | CC(=O)c1[nH]c(C)cc1C | 118 to 121 °C
21 | Cc1cc(O)c(C(=O)O)c(O)c1 | 176 °C

Row | SMILES | melting point
22 | CC(C)(C)c1nc(N)nc(O)n1 | 275 °C
23 | O=C(O)c1cc(Br)cc(Br)c1 | 224 to 226 °C
24 | S=C=Nc1c(Cl)cccc1Cl | 43 °C
25 | CC(=O)NC1C(OCc2ccccc2)OC2COC(c3ccccc3)OC2C1OC(C)C(=O)O (stereo not given) | 220 to 222 °C
26 | CCN(CC)CCNc1ccc(CO)c2sc3ccccc3c(=O)c12 | 101 °C
27 | CC1C=CCCC1 (stereo not given) | -124 °C
28 | O=C1OC(=O)c2c(Br)c(Br)c(Br)c(Br)c21 | 275 °C
29 | COc1cc2c(cc1OC)C(=O)C(CC1CCN(Cc3ccccc3)CC1)C2 (stereo not given) | 207 °C
30 | C[P+]([O-])(CCCCN1C(=O)c2ccccc2C1=O)OCCCCN1C(=O)c2ccccc2C1=O (stereo not given) | 114 °C
31 | O=C1C2=C(O)CCCC2Cc2ccccc21 (stereo not given) | 79 °C
32 | CC(=O)Nc1cc(N)ccc1C | 141 to 142 °C
33 | CC(C)N1CSc2nnc(-c3cccnc3)n2C1 | 289 °C
34 | Clc1cc2c(c(Cl)c1Cl)Oc1cc(Cl)c(Cl)c(Cl)c1O2 | 285 °C
35 | COCCCn1c(C(=O)O)cc2c(=O)n(C)c(=O)n(C)c21 | 166 °C
36 | CC1C(=O)OC(C)(C)OC1=O | 109 to 113 °C
37 | COC1=C(C(C)(C)C(C)C)C(=O)C(=O)c2ccccc21 | 93.3 to 93.6 °C
38 | CCC(C)OC(=O)C1=C2c3ncccc3ON2C(Cl)C(Cl)C1Cl (stereo not given) | 97 °C
39 | O=S(O)c1ccccc1 | 84 °C
40 | O=C(O)c1cc(=O)cc(C(=O)O)o1 | 262 °C
41 | C(=N\CC/N=C/c1ccc2c(c1)OCO2)/c1ccc2c(c1)OCO2 | 178 °C
42 | CCOC(=O)C(C(C)=O)C(C)C(C(C)=O)C(=O)OC1CC(C)CCC1C(C)C (stereo not given) | 155 °C

Row | SMILES | melting point
43 | NC(=O)NN=Cc1ccccc1 | 231 °C
44 | CC(C)(C)OC(=O)N1CCN(c2ccc(C=O)cc2)CC1 | 118 to 119 °C
45 | O=C(OCC(COC(=O)c1ccccc1)OC(=O)c1ccccc1)c1ccccc1 | 76 °C
46 | COC1C(O)C(C)OC(OC2CCC3(C=O)C(CCC4C3CCC3(C)C(C5=CC(=O)OC5)CCC43O)C2)C1O (stereo not given) | 162 °C
47 | CCN1CC2(COC)C(O)CC(OC)C34C5CC6(O)C(O)C5C(O)(C(O)C6OC)C(C(OC)C23)C14 (stereo not given) | 132 °C
48 | Cc1ccc(OCC(=O)O)c(C)c1 | 141 °C
49 | CCOC(=O)C(=O)c1ccc(Br)s1 | 70 to 71 °C
50 | O=CC(C=O)c1nc2ccccc2o1 | 222 to 230 °C
51 | c1cc2c(ccc3nonc32)nn1 | 139 to 141 °C
52 | CCOC(=O)C=CN(C)C | 17.5 °C
53 | Cc1cc(C)cc(C2Oc3c(Cl)c(Cl)c(Cl)c(Cl)c3O2)c1 | 160 °C
54 | CCCCCCCCCCCC=O | 44.5 °C
55 | O=C(O)COc1cccc(Cl)c1Cl | 174 °C
56 | Oc1ccccc1/C=C/c1ccccc1 | 147 °C
57 | O=S(=O)(Cl)c1c(Cl)ccc2nonc12 | 73 to 75 °C
58 | CCc1c(O)c(=O)ccn1N1CCOCC1 | 258 °C
59 | Cc1cc(C)c2c(c1)CC1CCCCN1C2=O (stereo not given) | 102 °C
60 | CC1(c2ccccc2)CNCCO1 (stereo not given) | 36 °C
61 | Nc1c(Br)cc(Br)c(Cl)c1Cl | 98 °C
62 | c1ccc(-c2cccs2)nc1 | 63 °C
63 | Cc1cc(C(=O)O)cc(Cl)c1N | 274 to 277 °C

Row | SMILES | melting point
64 | N#Cc1ccc(OC2CCOCC2)cc1 | 109 to 112 °C
65 | O=C(O)c1[nH]c2ccccc2c1Br | 185 to 188 °C
66 | O=Cc1ccc(N2CCCCC2)nc1 | 43 °C
67 | CC(=O)CC(C)(C)C | -64 °C
68 | Clc1cc2c(oc3c(Cl)c(Cl)c(Cl)c(Cl)c32)c(Cl)c1Cl | 233 °C
69 | COc1cc(N=C=O)cc(OC)c1 | 34 to 35.5 °C
70 | COC(=O)CCCCCC(=O)OC | -21 °C
71 | Cc1ccccc1NC(=S)c1cc(C(C)(C)C)c(O)c(C(C)(C)C)c1 | 257 to 258 °C
72 | O=C1NC2CCCCC12 (stereo not given) | 48 to 50 °C
73 | COC(=O)c1ccccc1S(=O)(=O)NC(=O)Nc1nc(OC(F)F)cc(OC(F)F)n1 | 196 °C
74 | CCC1CC2CC3c4[nH]c5cc(OC)ccc5c4CCN(C2)C13 (stereo not given) | 214 °C
75 | CC(=O)Nc1ccc(C#N)c(C(F)(F)F)c1 | 170 to 173 °C
76 | Brc1n[nH]c2nc3ccccc3nc12 | 273 to 276 °C
77 | CC(C)(C)OC(=O)NC(Cc1ccncc1)C(=O)O (stereo not given) | 225 to 229 °C
78 | Cc1cnc(Cl)c(N)c1 | 82 to 87 °C
79 | O=C(OCC1OC(Oc2ccccc2CO)C(O)C(O)C1O)c1ccccc1 (stereo not given) | 180 °C
80 | O=C(O)C1CCOCC1 | 87 to 89 °C
81 | Cc1cc2ccccc2cc1CC(F)(F)F | 75 to 75.5 °C

Second part, the compound after the results:

Row | melting point | SMILES
82 | 87 to 89 °C | N#CCS(=O)(=O)c1ccc(F)cc1
83 | 144 °C | CCCCOc1ccc(-c2nnc3n2NC(c2ccc(O)c(OC)c2)S3)cc1 (stereo not given)
84 | 146 to 147 °C | Cc1cccn2c(=O)c(C(=O)c3ccccc3)cnc12
85 | 141 to 143 °C | O=C(C(=O)c1ccc([N+](=O)[O-])cc1)c1ccccc1
86 | 47.5 °C | Cc1ccc(SSc2ccc(C)cc2)cc1
87 | 96 °C | O=C(Nc1ccccc1[N+](=O)[O-])c1ccccc1
88 | 208 to 209 °C | COC(=O)c1cnc(SCC(=O)NC(=O)Nc2ccc(Cl)cc2)n1C
89 | 108 °C | Cc1ccc([N+](=O)[O-])c(N)c1
90 | 172 °C | CCOC(=O)C1=C(c2ccccc2)NC(=O)NC1c1ccccc1 (stereo not given)
91 | 120 °C | COc1ccc(-c2onc(C(=O)c3cccs3)c2S(=O)(=O)c2ccccc2)cc1
92 | 137 to 139 °C | COc1ccc(C=C(Oc2ccc(Cl)cc2)c2nc3ccccc3s2)cc1
93 | 59.5 °C | c1ccc(Cc2cccc3ccccc23)cc1
94 | 281 °C | Cn1nc(CCNC(=O)c2cc([N+](=O)[O-])cc([N+](=O)[O-])c2)c2c(N)ncnc21
95 | 40 °C | O=[N+]([O-])c1cccnc1
96 | 133 to 134 °C | O=[N+]([O-])c1cc(/C=N\c2ccccc2)ccc1/C=N/c1ccccc1
97 | 144 °C | Cc1c(C)c2ccccc2c2ccccc12
98 | 204 °C | O=C(O)c1cccc(-c2cc[nH]n2)c1
99 | 212 °C | CC(=O)Nc1ccc(N=Nc2ccc(N)cc2)cc1
100 | 162 °C | CC(C)(C)N(NC(=O)c1ccccc1)C(=O)c1ccccc1Cl
101 | 124 °C | CCOC(=O)COc1ccc2c(=O)cc(-c3ccccc3)oc2c1
102 | 111 °C | CC(=O)Nc1cc(Cl)c(F)cc1[N+](=O)[O-]
103 | 172 to 174 °C | O=[N+]([O-])c1ccc(-c2ccno2)cc1

Row | melting point | SMILES
104 | 273 °C | CC1=NC(C)CNc2c1c(=O)n(-c1ccccc1)c1ccccc21 (stereo not given)
105 | 111 to 112 °C | Cc1nc(-c2ccc(S(=O)(=O)Cl)cc2)cs1
106 | 50 to 55 °C | O=C=Nc1ccc(F)cc1[N+](=O)[O-]
107 | 148 °C | COc1c2occc2cc2ccc(=O)oc12
108 | 204 °C | CC1(C)CC(=O)C2=C(C1)Nc1ccc3ccccc3c1C2c1ccc(F)cc1 (stereo not given)
109 | 167 to 168 °C | N#Cc1cc([N+](=O)[O-])ccc1Sc1ccc(Cl)cc1
110 | 128 °C | O=C(CC(C(=O)c1ccccc1)c1ccccc1)c1ccccc1 (stereo not given)
111 | 276 °C | CC(=O)NC1=NC(=O)C(=Cc2coc3ccc(Cl)cc3c2=O)N1C
112 | 85 °C | COc1ccc(CO)cc1OCc1ccccc1
113 | 60 °C | O=C(CCCl)c1ccc(Br)cc1
114 | 148 °C | CCC1c2ccccc2N(C)C12C=Cc1cccc([N+](=O)[O-])c1O2 (stereo not given)
115 | 118 °C | Cc1c2ccccc2nc2ccccc12
116 | 123 to 126 °C | COC(=O)c1ccc2cc(Br)ccc2c1
117 | 79 °C | COc1ccc(S(=O)(=O)Cl)cc1F
118 | 164 °C | c1ccc2c(c1)-c1ccc3ccc4cccc5cc-2c1c3c45
119 | 192 to 196 °C | CC(=O)c1ccc(-c2ccc(C(C)=O)cc2)cc1
120 | 260 °C | O/N=C1\C(c2ccccc2)=Nc2ccccc21
121 | 79 to 81 °C | N#Cc1ccc(C#N)c(OC(F)(F)F)c1
122 | 254 °C | COc1cccc(C=Cc2cc(C=Cc3cccc(OC)c3O)c([N+](=O)[O-])cc2[N+](=O)[O-])c1O
123 | 190 °C | CN(C)CCCN1c2ccccc2CCc2ccc(Cl)cc21
124 | 114 °C | CCCCCCCCCCc1ccc(NC(=O)c2ccc(C)cc2)cc1
125 | 161 °C | COc1ccc(C(=O)c2noc(-c3ccccc3)c2S(=O)(=O)c2ccccc2)cc1
